Experimental data from article PMC8107365, “Overlapping Properties of the Short Membrane-Active Peptide BP100 With (i) Polycationic TAT and (ii) α-helical Magainin Family Peptides” (Frontiers in Cellular and Infection Microbiology, 2021).
Converted amounts (≈) assume the structure as drawn. “And” between values parts separate entries of the source, which are not always exact repeats. Equal entries are not always repeated. Where two headings read alike, the source gives them in different places. Marks after values point to notes of the source that are not given here. Where a SMILES comes first, the peptide text is derived from it.

Assays:
[1] = test system: Enterobacter helveticus (DSM 18396)
Protocol: (§1) The antimicrobial activity of BP100 was tested using a standard MIC dilution assay, as previously described ([Strandberg et al., 2007]; [Wadhwani et al., 2012a]). Two Gram-negative strains, Escherichia coli (DSM 498) (K12) and Enterobacter helveticus (DSM 18396), and one Gram-positive strain, Kocuria rhizophila (DSM 348) were used. Bacteria were grown in Luria-Bertani medium at 37°C and 230 rpm overnight, and diluted in 1% trypticase soy broth (TSB). Peptide stock solutions (1024 μg/mL) were prepared in water. Microtiter plates (96 wells of 100 μl) were filled with 50 μl of 1% TSB, and serial 2-fold dilutions of peptides were arranged in columns. The two final rows of each plate remained without peptide, so that the penultimate data point served as the positive control (no peptide) and the final one as the negative control (not inoculated). To each well (except for the final row of each plate), an aliquot of 50 µl of a bacterial suspension containing 10^6 colony-forming units/mL was added to obtain a final volume of 100 µL. Antibacterial activities are expressed as the MIC and correspond to the lowest concentration of peptide, in micromolar units, at which no bacterial growth was detected after overnight incubation at 37°C. The tests were made in triplicate for each peptide, and the value shown is the lowest concentration where at least for two repetitions the growth was inhibited.

[2] = test system: Escherichia coli (DSM 498) (K12)
Protocol: as §1

[3] = test system: Kocuria rhizophila (DSM 348)
Protocol: as §1

[4] = test system: human erythrocytes; experiment: Hemolysis assay; settings: for HC10, concentration that induced 10% hemolysis: human erythrocytes 0.25% (v/v), Tris buffer pH 7.6/DMSO, 37°C, 20 min, absorbance 540 nm, relative to Triton X-100, up to 100 µM peptide
Protocol: The hemolytic effect of the peptides was tested on human erythrocytes as previously described ([Strandberg et al., 2007]). Citrate phosphate dextrose-stabilized blood bags with erythrocyte suspensions were obtained from the blood bank of the local municipal hospital (Karlsruhe, Germany). Erythrocytes were washed twice with 9-fold excess of Tris buffer (172 mM, pH 7.6 at 0°C) followed by centrifugation at 600 g for 10 min at 4°C, and kept on ice in between. After the second wash, the erythrocytes were transferred from the sediment to a fresh tube with the same precooled buffer to be diluted to about 10% (v/v) hematocrit, giving the stock cell suspension, which was kept on ice. […] The stock cell suspension was further diluted to about 0.5% (v/v). After preincubating for 3 min, 200 μL of the resulting erythrocyte dilution was transferred to each tube of the corresponding peptide serial dilution, to a final concentration of 0.25% (v/v). For each dilution series, zero hemolysis was obtained by adding the erythrocytes to Tris buffer (pH 7.6 at 37°C)/dimethylsulfoxide (9:1 v/v) and measuring the background lysis in the absence of peptide. For 100% hemolysis, the erythrocytes were added to 0.2% of Triton X-100 (Sigma, Germany) in the same buffer, giving a final concentration of 0.1% Triton X-100. Incubation was performed at 37°C for 20 min with gentle shaking. The tubes were centrifuged at 20 000 g for 5 min to pellet the cells, and the absorbance at 540 nm was recorded against water. The percentage lysis was then calculated relative to 0% lysis with buffer and 100% lysis by Triton X-100. The absorbance measurement was repeated three times, and the averaged values are used.

[5] = test system: HeLa cells; experiment: Toxicity against HeLa cells (calcein AM, fluorescence microscopy); assay type: cell-based, human; settings: for Toxicity (HeLa): overview Figure 5; for HeLa cells: lowest tested concentration where dead HeLa cells were observed: peptides N-terminally labeled with Fluka 630 red, 30 min, 37°C, HKR buffer pH 7.4, calcein AM, confocal microscopy
Protocol: HeLa TK A549 cells (from DSMZ, Braunschweig, Germany) were cultivated in minimal essential medium (MEM) with 10% fetal calf serum (FCS) (PAA, Cöble, Germany), and Glutamax (Invitrogen, Karlsruhe, Germany), without antibiotics. Cell density after incubation over night was 30000 cells/chamber in 300 µL medium. For experiments, the medium was removed and cells incubated with peptides at the respective concentration in HEPES Krebs Ringer (HKR) buffer, which consists of 5 mM HEPES, 137 mM NaCl, 2.68 mM KCl, 2.05 mM MgCl2, 1.8 mM CaCl2, and 5.55 mM glucose, pH 7.4. After 30 min (37°C, 5% CO2) cells were washed with HKR buffer, and the behavior of cells at variable peptide concentration examined. A confocal microscope type SP 5 from Leica was used for fluorescence microscopy. The 488 nm line of an argon laser was used for excitation of calcein and the 633 nm line of a helium-neon laser was used for excitation of Fluka 630 red. For kinetic experiments, cells were washed after incubation for 30 minutes and placed into MEM medium at 37°C, and studied after 1, 2, 4, 8 and 24 h. Five minutes before microscopy, calcein AM (Fluka, Buchs, Switzerland) was added to a final concentration of 1 nM to examine cell viability. To avoid artifacts, cells were not fixed.

[6] = test system: tested bacteria; settings: E. coli DSM 498, E. helveticus, K. rhizophila
Protocol: as §1

[7] = test system: erythrocytes; settings: ref Sabatier et al., 1991; Wang et al., 2010; cited from earlier work
Source text: Considering that Table 2 (and Figure 2 ) gives the percent of hemolysis as a function of concentration in µM, it can be noted that BP100 c ...

[8] = ref Thorén et al., 2005; cited from earlier work
Source text: Another kind of action of membrane-bound peptides is to facilitate fusion between membranes of vesicles or cells. We find here that BP100 has strong fusogenic activity ( Figure 4 ), even higher than the dedicated fusion peptide, FP23 from HIV-1, except in uncharged POPC/CHOL. […] These fusion results fit well with a previous comparison of different AMPs and CPPs ([Wadhwani et al., 2012b]). Obvio ...

[9] = serial 2-fold dilution, 1% TSB, overnight 37°C, triplicate, lowest concentration inhibiting growth in at least two repetitions

CC[C@H](C)[C@H](NC(=O)[C@H](C)NC(=O)CNC(=O)[C@H](C)NC(=O)[C@H](CCCCN)NC(=O)[C@H](CO)NC(=O)[C@H](C)NC(=O)[C@H](CCSC)NC(=O)CN)C(=O)N[C@@H](C)C(=O)NCC(=O)N[C@@H](CCCCN)C(=O)N[C@H](C(=O)N[C@@H](C)C(=O)N[C@@H](CCCCN)C(=O)N[C@H](C(=O)N[C@@H](C)C(=O)N[C@@H](CC(C)C)C(=O)N[C@@H](CCCCN)C(=O)N[C@@H](C)C(=O)N[C@@H](CC(C)C)C(N)=O)C(C)C)[C@@H](C)CC [PGLa] (H-GMASKAGAIAGKIAKVALKAL-NH2)
MIC E. helveticus [1, 9]: 16.3 µM (≈ 32.1 µg/mL) | MIC E. coli (DSM 498) [2, 9]: 25 µM (≈ 49.2 µg/mL) | MIC K. rhizophila [3, 9]: 4.1 µM (≈ 8.07 µg/mL) | HC10, concentration that induced 10% hemolysis [4]: 16 µM | Hemolysis ([4]; overview Figure 5): ++ | Toxicity (HeLa) [5]: + | HeLa cells: lowest tested concentration where dead HeLa cells were observed [5]: 10 µM

CC(C)C[C@H](NC(=O)[C@H](C)NC(=O)[C@H](CCCCN)NC(=O)[C@H](CC(C)C)NC(=O)[C@H](C)NC(=O)[C@H](CC(C)C)NC(=O)[C@H](CCCCN)NC(=O)[C@H](CC(C)C)NC(=O)[C@H](C)NC(=O)[C@H](CC(C)C)NC(=O)[C@@H](N)CCCCN)C(=O)N[C@@H](CCCCN)C(=O)N[C@@H](C)C(=O)N[C@@H](C)C(=O)N[C@@H](CC(C)C)C(=O)N[C@@H](CCCCN)C(=O)N[C@@H](CC(C)C)C(=O)N[C@@H](C)C(N)=O [MAP]
MIC E. helveticus [1, 9]: 3.2 µM (≈ 6 µg/mL) | MIC E. coli (DSM 498) [2, 9]: 25 µM (≈ 46.9 µg/mL) | MIC K. rhizophila [3, 9]: 0.4 µM (≈ 0.751 µg/mL) | HC10, concentration that induced 10% hemolysis [4]: 2 µM | Hemolysis ([4]; overview Figure 5): +++ | Toxicity (HeLa) [5]: +++ | HeLa cells: lowest tested concentration where dead HeLa cells were observed [5]: 2 µM

CC[C@H](C)[C@H](NC(=O)[C@H](CCCCN)NC(=O)CNC(=O)[C@H](C)NC(=O)[C@@H](NC(=O)[C@H](CCCCN)NC(=O)[C@H](C)NC(=O)[C@@H](NC(=O)[C@H](CCCCN)NC(=O)CNC(=O)[C@H](C)NC(=O)[C@@H](NC(=O)[C@H](CCCCN)NC(=O)[C@H](C)NC(=O)[C@@H](NC(=O)[C@H](CCCCN)NC(=O)CNC(=O)[C@H](C)NC(=O)[C@@H](NC(=O)[C@@H](N)CCCCN)[C@@H](C)CC)[C@@H](C)CC)[C@@H](C)CC)[C@@H](C)CC)[C@@H](C)CC)C(=O)N[C@@H](C)C(N)=O [MSI-103] (H-KIAGKIAKIAGKIAKIAGKIA-NH2)
MIC E. helveticus ([1]; DSM 18396): 1.6 µM (≈ 3.3 µg/mL) | MIC E. coli (DSM 498) ([2]; DSM 498): 12.5 µM (≈ 25.8 µg/mL) | MIC K. rhizophila ([3]; DSM 348): 0.8 µM (≈ 1.65 µg/mL) | Hemolysis [4]: ++ | Toxicity (HeLa) [5]: +++

N=C(N)NCCC[C@H](NC(=O)CN)C(=O)N[C@@H](CCCCN)C(=O)N[C@@H](CCCCN)C(=O)N[C@@H](CCCNC(=N)N)C(=O)N[C@@H](CCCNC(=N)N)C(=O)N[C@@H](CCC(N)=O)C(=O)N[C@@H](CCCNC(=N)N)C(=O)N[C@@H](CCCNC(=N)N)C(=O)N[C@@H](CCCNC(=N)N)C(=O)N1CCC[C@H]1C(=O)N1CCC[C@H]1C(=O)N[C@@H](CCC(N)=O)C(=O)O [TAT]
MIC E. helveticus [1, 9]: 500 µM (≈ 860 µg/mL) | MIC E. coli (DSM 498) [2, 9]: >500 ^e μM | MIC over the three tested strains [6]: at least 125 µM | MIC K. rhizophila [3, 9]: 125 µM (≈ 215 µg/mL) | HC10, concentration that induced 10% hemolysis [4]: >>100 μM | Hemolysis ([4]; overview Figure 5): - | Hemolytic activity, in words ([4]; peptide concentrations up to 100 µM): hardly any hemolytic activity | Hemolytic activity, in words (literature) [7]: did not show any hemolytic activity | Toxicity (HeLa) [5]: - | HeLa cells: lowest tested concentration where dead HeLa cells were observed [5]: > 20 μM and > 20 ^e μM

CC[C@H](C)[C@H](NC(=O)CN)C(=O)NCC(=O)N[C@@H](CCCCN)C(=O)N[C@@H](Cc1ccccc1)C(=O)N[C@@H](CC(C)C)C(=O)N[C@@H](Cc1c[nH]cn1)C(=O)N[C@@H](CO)C(=O)N[C@@H](C)C(=O)N[C@@H](CCCCN)C(=O)N[C@@H](CCCCN)C(=O)N[C@@H](Cc1ccccc1)C(=O)NCC(=O)N[C@@H](CCCCN)C(=O)N[C@@H](C)C(=O)N[C@@H](Cc1ccccc1)C(=O)N[C@H](C(=O)NCC(=O)N[C@@H](CCC(=O)O)C(=O)N[C@H](C(=O)N[C@@H](CCSC)C(=O)N[C@@H](CC(N)=O)C(=O)N[C@@H](CO)C(=O)O)[C@@H](C)CC)C(C)C [MAG2, magainin 2] (H-GIGKFLHSAKKFGKAFVGEIMNS-OH)
Toxicity (HeLa) [5]: + | HeLa cells: lowest tested concentration where dead HeLa cells were observed [5]: 20 µM

Ac-GRKKRRQRRRPWQ-NH2 [TATP59W]
Lipid mixing, in words [8]: high extent of lipid mixing

CC[C@H](C)[C@H](NC(=O)[C@H](CCCCN)NC(=O)[C@H](CCCCN)NC(=O)[C@H](Cc1ccccc1)NC(=O)[C@H](CC(C)C)NC(=O)[C@H](CCCCN)NC(=O)[C@@H](N)CCCCN)C(=O)N[C@@H](CC(C)C)C(=O)N[C@@H](CCCCN)C(=O)N[C@@H](Cc1ccc(O)cc1)C(=O)N[C@@H](CC(C)C)C(N)=O [BP100]
MIC E. helveticus [1, 9]: 6.3 µM (≈ 8.95 µg/mL) | MIC E. coli (DSM 498) [2, 9]: 6.3 µM (≈ 8.95 µg/mL) | MIC K. rhizophila [3, 9]: 3.2 µM (≈ 4.55 µg/mL) | HC10, concentration that induced 10% hemolysis [4]: 45 µM | Hemolysis ([4]; overview Figure 5): ++ | Toxicity (HeLa) [5]: +++ | HeLa cells: lowest tested concentration where dead HeLa cells were observed [5]: 4 µM
